According to EP4534147A1, “STING ANTAGONIST COMPOUNDS” (Sulis Therapeutics ApS, priority 2023, dated 2025):
pIC50: −log10 of the molar value.

Key:
[1] = target: T1, C-terminal domain (CTD) of human STING (Homo sapiens, UniProt Q86WV6); assay: STING binding TR-FRET assay (CisBio Human STING WT Binding Kit); parameters: purchased CisBio 64BDSTGPEG; details: recombinant human STING with His-tag, D2-labeled active site probe, 60 min at room temperature
Description: STING binding can be determined by a time-resolved FRET assay. For instance, a STING protein having a His-tag can be used. A D2-labeled active site probe can be used to accept 620 nm emission from Anti-HIS-Tb-STING. Increased fluorescence is measured at 665 nm. Molecules that compete for the probe binding site will result in a lower 665 nm signal. The assay can be performed in low-volume white 96-well plates containing 5 µL compounds in an appropriate diluent buffer. Following 60 minutes incubation at room temperature in the dark, fluorescence emission at 665 nm is measured following 330 nm xenon flash excitation. pIC50 values can be determined using a standard four parameter curve fit.
The affinity of molecules to the C-terminal domain (CTD) of human STING was determined using a commercial Human STING WT Binding Kit (CisBio, cat.# 64BDSTGPEG). In this time-resolved FRET assay, a recombinant human STING protein construct with a His-tag was employed. When bound to STING, a D2-labeled active site probe accepts the 620 nm emission from Anti-HIS-Tb-STING and an increase in fluorescence is measured at 665 nm. Molecules that compete for the probe binding site will result in a low 665 nm signal. The assay was run in CisBio low-volume white 96-well plates (catalog# 66PL96005) containing 5 µL compounds in Diluent Buffer (supplied with the CisBio kit). A solution of 1xSTING, 1x Anti-HIS-Tb and 1X D2-probe in TB detection buffer (kit supplied) was added to the plate. Plates were centrifuged for 2 min at 500 rpm, incubated for 60 min at room temperature in the dark, and then fluorescence emission at 665 nm following 330 nm xenon flash excitation on an BioTek synergy H1 multimode reader (Agilent) was measured. The plC50 values were determined using a standard four parameter curve fit in GraphPad Prism.
Target sequence in this assay (Q86WV6 135-379 limits assumed): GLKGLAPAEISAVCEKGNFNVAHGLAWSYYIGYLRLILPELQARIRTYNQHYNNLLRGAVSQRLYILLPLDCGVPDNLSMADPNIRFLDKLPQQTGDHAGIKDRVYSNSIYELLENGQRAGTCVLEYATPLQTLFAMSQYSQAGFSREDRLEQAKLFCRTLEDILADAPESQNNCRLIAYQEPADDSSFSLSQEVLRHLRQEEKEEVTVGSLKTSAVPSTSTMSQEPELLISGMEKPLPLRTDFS

[2] = target: T1, C-terminal domain (CTD) of human STING; assay: STING binding FP assay I (fluorescence polarization competition binding); parameters: recombinant human STING protein (155-379); details: recombinant human STING protein (155-379), 35 nM STING, 4 nM fluorescein-labelled STING ligand (Probe 1), 20 min at room temperature
Description: The interaction between molecules and the C-terminal domain (CTD) of human STING was evaluated using a competition binding assay. In this assay, recombinant human STING protein (155-379) and a STING binding fluorescent probe were employed. Upon binding of the probe to STING, the rotation of the fluorescent probe is slowed due to the larger molecular size of the protein-bound complex. As a result, emitted light retains its plane of polarization, leading to an increase in fluorescence polarization. Molecules competing for the probe binding site displace the probe, which leads to rapid randomization of the polarization plane of the emitted light and a subsequent decrease in measured fluorescence polarization signal. Change in polarization was measured, allowing a comparative evaluation of the binding affinities of different compounds to the target protein.
The assay was performed in 96-well plates (ThermoFisher, cat.# 237108) containing 100 µl : 10 µL test compound in 10% DMSO and buffer A (150 mM NaCl, 50 mM HEPES pH 7.5, 1 mM DTT) + 90 µL prepared master mix solution of: 4 nM fluorescein-labelled STING ligand (Probe 1; synthesis described above) in buffer A + 0.055% Tween-20 (v/v) and 35 nM STING in buffer A. Post mixing, plates were agitated at 600 rpm and incubated for 20 min at room temperature. Subsequent measurements of the fluorescence polarization signal were made on a BioTek Synergy-H1 plate reader, using a polarization filter; excitation: 485/20 nm, emission: 528/20 nm) with a gain-setting of 75. IC50 values were determined using a standard non-linear regression four-parameter curve fit in Graphpad Prism.
Target sequence in this assay (Q86WV6 155-379): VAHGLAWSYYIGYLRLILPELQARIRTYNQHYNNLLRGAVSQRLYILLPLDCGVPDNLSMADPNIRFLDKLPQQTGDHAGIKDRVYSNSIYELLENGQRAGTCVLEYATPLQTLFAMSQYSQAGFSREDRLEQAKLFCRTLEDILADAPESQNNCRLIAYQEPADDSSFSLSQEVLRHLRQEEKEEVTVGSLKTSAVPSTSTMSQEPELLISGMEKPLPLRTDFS

STING = target: T2, STING (Homo sapiens, UniProt Q86WV6); assay: Human FB STING antagonist assay (IFN-a/b release); format: cell-based; details: Human skin fibroblasts, 2h pre-treatment, 300 nM GSK STING agonist (CAS number: 2138299-34-8) for 20 h, release of IFN-a/b by HEK-Blue IFN-α/β bioassay
T2 construct: endogenous in cells; host or cells: human skin fibroblasts
Description: STING antagonist activity can be determined by a human fibroblast antagonist assay. For this, human skin fibroblasts are pre-treated for 2h with a serial dilution of the compound, and are then stimulated for 20 hours with 300 nM STING agonist (e.g. from GSK, CAS number: 2138299-34-8). Supernatants are then harvested and assessed for IFN-a/b release, which indicates STING activation. IFN-a/b concentration in the supernatant is determined, e.g. using an IFN-α/β bioassay. IC50 values are calculated using a non-linear regression fitting, variable slope (4 parameters).
Human skin fibroblasts were pre-treated for 2h with a serial dilution of test compound followed by stimulation with mock or 300 nM GSK STING agonist (CAS number: 2138299-34-8). Supernatants were harvested after 20 h of STING agonist stimulation. Release of IFN-a/b was determined using HEK-Blue IFN-α/β bioassay (Invivogen). Cellular viability was assessed using Alamar Blue HS assay. IC50 values were estimated using a non-linear regression fitting, variable slope (4 parameters) in GraphPad Prism 9.3.1.

T2 sequence (Q86WV6 whole entry): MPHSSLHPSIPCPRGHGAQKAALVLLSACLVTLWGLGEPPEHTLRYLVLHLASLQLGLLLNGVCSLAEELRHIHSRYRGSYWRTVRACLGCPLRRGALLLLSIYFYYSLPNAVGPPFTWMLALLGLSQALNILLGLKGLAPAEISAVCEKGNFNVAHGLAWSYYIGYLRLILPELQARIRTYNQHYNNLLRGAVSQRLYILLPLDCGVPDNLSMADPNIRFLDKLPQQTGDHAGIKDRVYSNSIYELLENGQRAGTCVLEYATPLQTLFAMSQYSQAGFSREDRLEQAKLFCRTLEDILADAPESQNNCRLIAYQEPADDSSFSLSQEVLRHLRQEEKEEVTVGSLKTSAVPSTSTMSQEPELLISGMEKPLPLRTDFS

`CCn1nc(C)cc1C(=O)N=c1n(C)c2cc(C(N)=O)ccc2n1CCC(CCn1c(=NC(=O)c2cc(C)nn2CC)n(C)c2cc(C(N)=O)ccc21)OCC(=O)O` (stereo not drawn) [Example 3, (3-{5-Carbamoyl-2-[(1-ethyl-3-methyl-5-pyrazolyl)carbonylimino]-3-methyl-2,3-dihydro-1H-1,3-benzimidazol-1-yl}-1-(2-{5-carbamoyl-2-[(1-ethyl-3-methyl-5-pyrazolyl)carbonylimino]-3-methyl-2,3-dihydro-1H-1,3-benzimidazol-1-yl}ethyl)propoxy)acetic acid] showed a pIC50 [1] of 9.34 and a pIC50 [2] of over 7.52.
`CCn1nc(C)cc1C(=O)N=c1n(C)c2cc(C(N)=O)ccc2n1CCC(CCn1c(=NC(=O)c2cc(C)nn2CC)n(C)c2cc(C(N)=O)ccc21)OCC(=O)NC(C)C` (stereo not drawn) [Example 5, 1-{3-[(N-lsopropylcarbamoyl)methoxy]-5-{5-carbamoyl-2-[(1-ethyl-3-methyl-5-pyrazolyl)carbonylimino]-3-methyl-2,3-dihydro-1H-1,3-benzimidazol-1-yl}pentyl}-2-[(1-ethyl-3-methyl-5-pyrazolyl)carbonylimino]-3-methyl-2,3-dihydro-1H-1,3-benzimidazole-5-carboxamide] showed a pIC50 [1] of 9.42 and a pIC50 [2] of over 7.52.
`CCn1nc(C)cc1C(=O)N=c1n(C)c2cc(C(N)=O)ccc2n1CCC(CCn1c(=NC(=O)c2cc(C)nn2CC)n(C)c2cc(C(N)=O)ccc21)OCC(=O)Nc1ccccc1` (stereo not drawn) [Example 6, 1-{3-[(N-Phenylcarbamoyl)methoxy]-5-{5-carbamoyl-2-[(1-ethyl-3-methyl-5-pyrazolyl)carbonylimino]-3-methyl-2,3-dihydro-1H-1,3-benzimidazol-1-yl}pentyl}-2-[(1-ethyl-3-methyl-5-pyrazolyl)carbonylimino]-3-methyl-2,3-dihydro-1H-1,3-benzimidazole-5-carboxamide] was tested, and the pIC50 [1] was 9.22, the pIC50 (STING) was 5.12 and the pIC50 [2] was over 7.52.
In the case of `CCn1nc(C)cc1C(=O)N=c1n(C)c2cc(C(N)=O)ccc2n1CCC(CCn1c(=NC(=O)c2cc(C)nn2CC)n(C)c2cc(C(N)=O)ccc21)OCC(=O)N1CCOCC1` (stereo not drawn) [Example 7, 1-(5-{5-Carbamoyl-2-[(1-ethyl-3-methyl-5-pyrazolyl)carbonylimino]-3-methyl-2,3-dihydro-1H-1,3-benzimidazol-1-yl}-3-(2-morpholino-2-oxoethoxy)pentyl)-2-[(1-ethyl-3-methyl-5-pyrazolyl)carbonylimino]-3-methyl-2,3-dihydro-1H-1,3-benzimidazole-5-carboxamide], the pIC50 [1] was 9.57, the pIC50 (STING) was 5.46 and the pIC50 [2] was over 7.52.
With `CCn1nc(C)cc1C(=O)N=c1n(C)c2cc(C(N)=O)ccc2n1CCC(CCn1c(=NC(=O)c2cc(C)nn2CC)n(C)c2cc(C(N)=O)ccc21)OCC(=O)Nc1ccncn1` (stereo not drawn) [Example 8, 1-{3-[(N-4-Pyrimidinylcarbamoyl)methoxy]-5-{5-carbamoyl-2-[(1-ethyl-3-methyl-5-pyrazolyl)carbonylimino]-3-methyl-2,3-dihydro-1H-1,3-benzimidazol-1-yl}pentyl}-2-[(1-ethyl-3-methyl-5-pyrazolyl)carbonylimino]-3-methyl-2,3-dihydro-1H-1,3-benzimidazole-5-carboxamide] the pIC50 (STING) was 5.33 and the pIC50 [2] was over 7.52.
`CCn1nc(C)cc1C(=O)N=c1n(C)c2cc(C(N)=O)ccc2n1CCC(CCn1c(=NC(=O)c2cc(C)nn2CC)n(C)c2cc(C(N)=O)ccc21)OCC(=O)N1CCc2cc(OC)ccc2C1` (stereo not drawn) [Example 9, 1-(5-{5-Carbamoyl-2-[(1-ethyl-3-methyl-5-pyrazolyl)carbonylimino]-3-methyl-2,3-dihydro-1H-1,3-benzimidazol-1-yl}-3-[2-(6-methoxy-1,2,3,4-tetrahydro-2-isoquinolyl)-2-oxoethoxy]pentyl)-2-[(1-ethyl-3-methyl-5-pyrazolyl)carbonylimino]-3-methyl-2,3-dihydro-1H-1 ,3-benzimidazole-5-carboxamide] gave a pIC50 [1] of 9.18, a pIC50 (STING) of 4.88 and a pIC50 [2] of over 7.52.
